Among the data in BindingDB's records for PubMed 1848629 (Georgetown University, 1991) are Ki values, retold here.

Each structure is given as a SMILES string. pKi: −log10 of the molar value. Several values for one entry are separate records, joined by “and”; a condition that tells them apart may be missing. Identical values can stand only once.

In the first experiment the target is Gamma-aminobutyric acid type B receptor subunit 1 (UniProt Q9Z0U4).
Chain of Gamma-aminobutyric acid type B receptor subunit 1 (Q9Z0U4 whole entry): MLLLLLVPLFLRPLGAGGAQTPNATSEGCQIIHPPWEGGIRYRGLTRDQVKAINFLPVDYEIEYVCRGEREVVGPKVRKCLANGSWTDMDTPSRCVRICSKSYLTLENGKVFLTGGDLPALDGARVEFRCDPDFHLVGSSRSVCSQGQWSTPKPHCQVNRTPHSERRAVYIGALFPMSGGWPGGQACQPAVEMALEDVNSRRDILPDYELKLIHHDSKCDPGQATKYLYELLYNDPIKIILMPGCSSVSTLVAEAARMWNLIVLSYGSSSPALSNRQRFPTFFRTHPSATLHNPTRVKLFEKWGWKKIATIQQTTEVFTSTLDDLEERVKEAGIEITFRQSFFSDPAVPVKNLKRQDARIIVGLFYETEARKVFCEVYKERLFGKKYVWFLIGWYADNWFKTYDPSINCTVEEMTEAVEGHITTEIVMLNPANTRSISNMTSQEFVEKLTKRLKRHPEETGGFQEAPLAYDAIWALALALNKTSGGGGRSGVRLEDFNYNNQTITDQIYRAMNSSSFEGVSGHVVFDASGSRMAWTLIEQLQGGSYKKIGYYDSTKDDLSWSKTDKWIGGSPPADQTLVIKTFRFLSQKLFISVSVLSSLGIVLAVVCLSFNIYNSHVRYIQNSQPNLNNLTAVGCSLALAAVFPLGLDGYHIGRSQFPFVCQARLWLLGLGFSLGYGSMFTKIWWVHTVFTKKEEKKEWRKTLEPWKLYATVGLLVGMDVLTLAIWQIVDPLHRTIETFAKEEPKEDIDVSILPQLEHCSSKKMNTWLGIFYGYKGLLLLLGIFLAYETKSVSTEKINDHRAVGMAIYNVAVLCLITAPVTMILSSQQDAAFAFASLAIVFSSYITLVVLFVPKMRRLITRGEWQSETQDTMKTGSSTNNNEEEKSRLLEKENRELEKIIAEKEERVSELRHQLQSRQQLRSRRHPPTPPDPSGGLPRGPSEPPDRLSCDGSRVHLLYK
`CN1C(=O)CN=C(c2ccc(Cl)cc2)c2cc(Cl)ccc21` [Ro5-4864] gave a pKi of 6.00.
As to `Cc1nnc2n1-c1ccc(Cl)cc1C(c1ccccc1)=NC2`, the pKi was 8.35 and 8.30 and 8.17 and 8.28 and 8.10.
For `CN1C(=O)CN=C(c2ccccc2F)c2cc([N+](=O)[O-])ccc21` [Flunitrazepam], the negative-log Ki (pKi) is 8.06 and 8.00 and 8.21 and 8.30 and 8.12.
In the case of `CN1C(=O)CN=C(c2ccccc2)c2cc(Cl)ccc21`, the pKi was 7.72 and 7.74 and 7.66 and 7.70 and 7.59.
For `CC[C@@H](C)N(C)C(=O)c1cc2ccccc2c(-c2ccccc2Cl)n1` [PK 11195], the negative logarithm of the Ki (pKi) was 6.00.

The target of the next experiment is Gamma-aminobutyric acid (GABA) B receptor 1 (Rattus norvegicus, UniProt Q6MFX8).
Chain of Gamma-aminobutyric acid (GABA) B receptor 1 (Q6MFX8 whole entry): as the sequence (Q9Z0U4 whole entry) above
In the case of `CCOC(=O)c1ncn2c1CN(C)C(=O)c1cc(F)ccc1-2` [ethyl 12-fluoro-8-methyl-9-oxo-2,4,8-triazatricyclo[8.4.0.0^{2,6}]tetradeca-1(14),3,5,10,12-pentaene-5-carboxylate], the pKi is 9.00 and 8.70 and 8.72.
As for `Cc1nnc2ccc(-c3cccc(C(F)(F)F)c3)nn12`, the pKi was 7.82 and 7.92 and 7.00.

As a reminder, the pKi is the negative decadic logarithm of the Ki, by convention in mol/L. Higher therefore signals a small Ki.
